From US6395785B1 (Orion Corporation, priority 1998, dated 2002)
Where two headings read alike, the source gives them in different places.

Assays:
serum cholesterol [1] = conditions: for Serum cholesterol content (control level taken as 1.00): ovarectomized rats; for Decrease of serum cholesterol level (maximum): ovarectomy study, over the doses tested
Method: (§2) The effects on uterine weight and on serum cholesterol levels were studied in intact and ovarectomized adult female Sprague-Dawley rats. […] In the ovarectomy study the study drug was given p.o. at a daily dose of 0.1, 1 or 10 mg/kg for 4 weeks and comparison was made with the corresponding Z-isomer and estradiol (100 μg/kg). The serum cholesterol content was determined by an enzymatic method. In the ovarectomy study the serum cholesterol and cholesterol precursor molecule content was determined by gas-liquid chromatography.

[2] = tested on: uterine weight in intact adult female Sprague-Dawley rats; assay: Uterine weight in intact adult female rats; conditions: p.o. 3.17 mg/kg daily or equimolar dose, two weeks
Method: as §2

serum cholesterol [3] = assay: Serum cholesterol in intact adult female rats; conditions: for Serum cholesterol content (control level taken as 1.00; mean ± SD, n = 3): intact rats, p.o. 3.17 mg/kg daily or equimolar dose, two weeks
Method: as §2

[4] = tested on: serum cholesterol precursor molecule; conditions: ovarectomy study
Method: as §2

[5] = tested on: uterine weight in immature female Sprague-Dawley rats; conditions: for Average uterine weight (weight after mere E2-treatment was taken as 1.00): drug alone
Method: (§1) The estrogenic/antiestrogenic activity of the study drug was tested by measuring the effect on the uterine weight in immature (18 days old) female Sprague-Dawley rats. The compound was given p.o. in a PEG-solution for 3 days (n=5/group). At the same time the ability of the study drug to inhibit estrogen-induced increase in uterine weight was studied in rats given estradiol 50 μg/kg s.c. Comparison was made with the corresponding Z-isomer.

[6] = tested on: estrogen-induced increase in uterine weight
Method: as §1

[7] = tested on: uterine weight in ovarectomized adult female Sprague-Dawley rats; assay: Uterine weight in ovarectomized adult female rats; format: in vivo; conditions: for Relative uterine weight (control level taken as 1.00): ovarectomized rats
Method: as §2

Hep G2 cell cultures = conditions: for Cholesterol biosynthesis level (% of control): 2 hours, Hep G2; for Effect on cholesterol biosynthesis (in words): in vitro cell culture system, 0.01 to 10 micromolar
Method: The effects on cholesterol biosynthesis was studied in vitro in Hep G2 cell cultures using ^14C-acetate as cholesterol precursor. The test compound was added into the culture medium at concentrations from 0.01 to 10 micromolar. After 2 hours the culture was stopped and the newly synthesized cholesterol was quantitated by thin-layer chromatography. Comparison was made with the Z-isomer.

[8] = 0.1 mg/kg p.o. for 3 days + E2 (estradiol 50 μg/kg s.c.)
[9] = 0.5 mg/kg p.o. for 3 days + E2 (estradiol 50 μg/kg s.c.)
[10] = 1 mg/kg p.o. for 3 days + E2 (estradiol 50 μg/kg s.c.)
[11] = 10 mg/kg p.o. for 3 days + E2 (estradiol 50 μg/kg s.c.)

| Structure (SMILES) | Serum cholesterol content (control level taken as 1.00) (serum cholesterol [1]; 1 mg/kg p.o. daily, 4 weeks) | Serum cholesterol content (control level taken as 1.00) (serum cholesterol [1]; 10 mg/kg p.o. daily, 4 weeks) | Decrease of serum cholesterol level (maximum) (serum cholesterol [1]) | Relative uterine weight (control level taken as 1.00; mean ± SD, n = 3) [2] | Serum cholesterol content (control level taken as 1.00; mean ± SD, n = 3) (serum cholesterol [3]) | Effect on serum cholesterol precursor molecule level (in words) [4] | Average uterine weight (weight after mere E2-treatment was taken as 1.00) ([5]; 0.1 mg/kg p.o. for 3 days) | Average uterine weight (weight after mere E2-treatment was taken as 1.00) ([5]; 0.5 mg/kg p.o. for 3 days) | Average uterine weight (weight after mere E2-treatment was taken as 1.00) ([5]; 1 mg/kg p.o. for 3 days) | Average uterine weight (weight after mere E2-treatment was taken as 1.00) ([5]; 10 mg/kg p.o. for 3 days) | Average uterine weight (weight after mere E2-treatment was taken as 1.00) [6, 8] | Average uterine weight (weight after mere E2-treatment was taken as 1.00) [6, 9] | Average uterine weight (weight after mere E2-treatment was taken as 1.00) [6, 10] | Average uterine weight (weight after mere E2-treatment was taken as 1.00) [6, 11] | Relative uterine weight (control level taken as 1.00) ([7]; 0.1 mg/kg p.o. daily, 4 weeks) | Relative uterine weight (control level taken as 1.00) ([7]; 1 mg/kg p.o. daily, 4 weeks) | Relative uterine weight (control level taken as 1.00) ([7]; 10 mg/kg p.o. daily, 4 weeks) | Cholesterol biosynthesis level (% of control) (Hep G2 cell cultures; 0.01 μM) | Cholesterol biosynthesis level (% of control) (Hep G2 cell cultures; 0.1 μM) | Cholesterol biosynthesis level (% of control) (Hep G2 cell cultures; 1 μM) | other results |
| --- | --- | --- | --- | --- | --- | --- | --- | --- | --- | --- | --- | --- | --- | --- | --- | --- | --- | --- | --- | --- | --- |
| OCCOc1ccc(/C(=C(/CCCl)c2ccccc2)c2ccccc2)cc1 [1271a (Z), Z-2-[4-(4-chloro-1,2-diphenyl-but-1-enyl)phenoxy]ethanol] | 0.96 | 0.66 | up to 34% | 0.75 ± 0.06 | 0.65 ± 0.10 | not | 0.27 | 0.43 | 0.53 | 0.75 | 1.18 | 1.11 | 0.91 | 0.91 | 1.22 | 1.78 | 2.04 | 143 % of control | 127 % of control | 129 % of control | Serum cholesterol content (control level taken as 1.00) (serum cholesterol [1]; 0.5 mg/kg): 0.90; Serum cholesterol content (control level taken as 1.00) (serum cholesterol [1]; 5 mg/kg): 0.89; Efficacy in decreasing serum cholesterol level (in words) (serum cholesterol [3]; intact adult female rats, compared with the other drugs): less effective; Cholesterol biosynthesis level (% of control) (Hep G2 cell cultures; 10 μM): 132 % of control; Effect on cholesterol biosynthesis (in words) (Hep G2 cell cultures): had an opposite effect |
| OCCOc1ccc(/C(=C(\CCCl)c2ccccc2)c2ccccc2)cc1 [1271b (E), E-2-[4-(4-chloro-1,2-diphenyl-but-1-enyl)phenoxy]ethanol] | 0.62 | 0.23 | up to 77% | 0.85 ± 0.07 | 0.43 ± 0.05 | increased slightly | 0.37 | 0.45 | 0.44 | 0.75 | 0.81 | 0.82 | 0.57 | 0.83 | 1.54 | 1.50 | 1.53 | 89 % of control | 90 % of control | 89 % of control | Serum cholesterol content (control level taken as 1.00) (serum cholesterol [1]; 0.1 mg/kg p.o. daily, 4 weeks): 0.92; Estrogenic and antiestrogenic effect compared to the corresponding Z-isomer (in words) ([5]; immature rat uterine weight test): approximately equal estrogenic and antiestrogenic effect; Increase of relative uterus weight ([7]; ovarectomy study, 0.1, 1 or 10 mg/kg p.o., 4 weeks): 1.5 fold; Cholesterol biosynthesis level (% of control) (Hep G2 cell cultures; 10 μM): 84 % of control; Effect on cholesterol biosynthesis (in words) (Hep G2 cell cultures): inhibited slightly cholesterol biosynthesis |
| C[C@]12CC[C@@H]3c4ccc(O)cc4CC[C@H]3[C@@H]1CC[C@@H]2O [Estradiol] |  |  |  | 1.29 ± 0.06 | 0.48 ± 0.09 |  |  |  |  |  |  |  |  |  |  |  |  |  |  |  | Increase of relative uterus weight ([7]; ovarectomy study, estradiol 100 μg/kg): 3.3 fold |
| O=C(c1ccc(OCCN2CCCCC2)cc1)c1c(-c2ccc(O)cc2)sc2cc(O)ccc12 [Raloxifene] |  |  |  | 0.77 ± 0.21 | 0.48 ± 0.09 |  |  |  |  |  |  |  |  |  |  |  |  |  |  |  |  |
| CN(C)CCOc1ccc(/C(=C(/CCCl)c2ccccc2)c2ccccc2)cc1 [Toremifene (E)] |  |  |  | 1.09 ± 0.10 | 0.40 ± 0.18 |  |  |  |  |  |  |  |  |  |  |  |  |  |  |  |  |
